Legend:
[1] = tested on: HeLa; assay: Potency index, ratio of etoposide IC50 to test compound IC50 for antiproliferative activity against human HeLa cells; assay type: functional
[2] = tested on: A549; assay: Potency index, ratio of etoposide IC50 to test compound IC50 for antiproliferative activity against human A549 cells; assay type: functional
[3] = tested on: MCF7; assay: Potency index, ratio of etoposide IC50 to test compound IC50 for antiproliferative activity against human MCF7 cells; assay type: functional
[4] = tested on: HepG2; assay: Potency index, ratio of etoposide IC50 to test compound IC50 for antiproliferative activity against human HepG2 cells; assay type: functional
[5] = tested on: SK-OV-3; assay: Potency index, ratio of etoposide IC50 to test compound IC50 for antiproliferative activity against human SK-OV-3 cells; assay type: functional
[6] = tested on: BGC-823; assay: Potency index, ratio of etoposide IC50 to test compound IC50 for antiproliferative activity against human BGC-823 cells; assay type: functional
[7] = tested on: MGC-803; assay: Potency index, ratio of etoposide IC50 to test compound IC50 for antiproliferative activity against human MGC-803 cells; assay type: functional
[8] = tested on: K562; assay: Potency index, ratio of etoposide IC50 to test compound IC50 for antiproliferative activity against human K562 cells; assay type: functional
[9] = tested on: K562/A02; assay: Potency index, ratio of etoposide IC50 to test compound IC50 for antiproliferative activity against human K562/A02 cells; assay type: functional
[10] = tested on: HepG2; assay: Antiproliferative activity against human HepG2 cells incubated for 48 hrs by MTT assay; assay type: functional, cell-based; details: HepG2, 48 h
[11] = Antiproliferative activity against human HCCLM3 cells incubated for 48 hrs by MTT assay; assay type: functional, cell-based; details: HCCLM3, 48 h
[12] = tested on: HepG2; assay: Antitumor activity against human HepG2 cells xenografted in BALB/c nude mouse assessed as tumor weight suppression at 1 mg/kg, ip administered every 6 days for 20 days and measured every 2 days by digital caliper method relative to control; assay type: functional, organism-based; details: time 20 day
[13] = tested on: B16; assay: Antiproliferative activity against […] cells incubated for 48 to 72 hrs by MTT assay; assay type: functional, cell-based; details: Mus musculus
[14] = tested on: NCI-H1993; assay: Antiproliferative activity against human NCI-H1993 cells incubated for 48 to 72 hrs by MTT assay; assay type: functional, cell-based
[15] = tested on: MKN-45; assay: Antiproliferative activity against human MKN-45 cells incubated for 48 to 72 hrs by MTT assay; assay type: functional, cell-based
[16] = tested on: HepG2; assay: Antiproliferative activity against human HepG2 cells incubated for 48 to 72 hrs by MTT assay; assay type: functional, cell-based
[17] = tested on: K562; assay: Antiproliferative activity against human K562 cells incubated for 72 hrs by CCK8 assay; assay type: functional, cell-based; details: K562, 72 h
[18] = tested on: MKN-45; assay: Antiproliferative activity against human MKN-45 cells incubated for 72 hrs by MTT assay; assay type: functional, cell-based; details: time 72 hrs
[19] = tested on: HeLa; assay: Antiproliferative activity against human HeLa cells incubated for 48 hrs by MTT assay; assay type: functional, cell-based
[20] = tested on: K562; assay: Antiproliferative activity against human K562 cells incubated for 48 hrs by MTT assay; assay type: functional, cell-based; details: K562, 48 h
[21] = tested on: A549; assay: Antiproliferative activity against human A549 cells incubated for 48 hrs by MTT assay; assay type: functional, cell-based; details: A549, 48 h
[22] = tested on: MCF7; assay: Antiproliferative activity against human MCF7 cells incubated for 48 hrs by MTT assay; assay type: functional, cell-based; details: MCF7, 48 h
[23] = tested on: SK-OV-3; assay: Antiproliferative activity against human SKOV3 cells incubated for 48 hrs by MTT assay; assay type: functional, cell-based; details: SK-OV-3, 48 h
[24] = tested on: BGC-823; assay: Antiproliferative activity against human BGC-823 cells incubated for 48 hrs by MTT assay; assay type: functional, cell-based; details: BGC-823, 48 h
[25] = tested on: MGC-803; assay: Antiproliferative activity against human MGC-803 cells incubated for 48 hrs by MTT assay; assay type: functional, cell-based; details: MGC-803, 48 h
[26] = tested on: K562; assay: Antiproliferative activity against human K562 cells incubated for 72 hrs by CCK8 method; assay type: functional, cell-based; details: K562, 72 h
[27] = tested on: SW480; assay: Antiproliferative activity against human SW480 cells incubated for 48 hrs by MTT assay; assay type: functional, cell-based; details: SW480, 48 h
[28] = tested on: SMMC-7721; assay: Antiproliferative activity against human SMMC-7721 cells incubated for 48 hrs by MTT assay; assay type: functional, cell-based; details: SMMC-7721, 48 h
[29] = tested on: HL-60; assay: Antiproliferative activity against human HL-60 cells incubated for 48 hrs by MTT assay; assay type: functional, cell-based; details: HL-60, 48 h
[30] = tested on: HeLa; assay: Antiproliferative activity against human HeLa cells by MTT assay; assay type: functional, cell-based
[31] = tested on: K562/A02; assay: Antiproliferative activity against human K562/A02 cells by MTT assay; assay type: functional, cell-based
[32] = tested on: K562; assay: Antiproliferative activity against human K562 cells by MTT assay; assay type: functional, cell-based
[33] = tested on: K562; assay: Cytotoxicity against human K562 cells by SRB assay; assay type: functional, cell-based
[34] = tested on: K562/A02; assay: Cytotoxicity against human K562/A02 cells by SRB assay; assay type: functional, cell-based
[35] = tested on: HOS; assay: Cytotoxicity against human HOS cells by MTT assay; assay type: functional
[36] = tested on: LoVo; assay: Cytotoxicity against human LoVo cells by MTT assay; assay type: functional, cell-based
[37] = tested on: MCF7; assay: Cytotoxicity against human MCF7 cells by MTT assay; assay type: functional, cell-based
[38] = tested on: HeLa; assay: Cytotoxicity against human HeLa cells by MTT assay; assay type: functional, cell-based
[39] = tested on: KB; assay: Cytotoxicity against human KB cells by MTT assay; assay type: functional, cell-based
[40] = Cytotoxicity against human KBv200 cells by MTT assay; assay type: functional, cell-based; details: KBv200, Uterine cervix
[41] = tested on: K562/Adr; assay: Antiproliferative activity against human K562/ADR cells incubated for 72 hrs by CCK8 assay; assay type: functional, cell-based
[42] = tested on: BGC-823; assay: Antiproliferative activity against human BGC-823 cells incubated for 72 hrs by MTT assay; assay type: functional, cell-based; details: BGC-823, 72 h
[43] = tested on: KB; assay: Cytotoxicity against human KB cells incubated for 72 hrs by SRB method; assay type: functional, cell-based
[44] = tested on: KB; assay: Cytotoxicity against human Vincristine-resistant KB cells incubated for 72 hrs by SRB method; assay type: functional, cell-based
[45] = Mean initial plasma concentration in Sprague-Dawley rat at 2.5 mg/kg, iv measured after 5 to 1440 mins by LC-MS/MS analysis; assay type: ADME, organism-based; details: Rattus norvegicus
[46] = AUCinfinity in Sprague-Dawley rat at 2.5 mg/kg, iv measured after 5 to 1440 mins by LC-MS/MS analysis; assay type: ADME, organism-based; design: route intravenous, dose 2.5 mg/kg, time upper 1440 min, time lower 5 min; details: in vivo, time 5-1440 min, dose 2.5 mg/kg
[47] = Plasma clearance in Sprague-Dawley rat at 2.5 mg/kg, iv measured after 5 to 1440 mins by LC-MS/MS analysis; assay type: ADME, organism-based; design: dose 2.5 mg/kg, time upper 1440 min, time lower 5 min; details: 2.5 mg/kg
[48] = tested on: HCT-116; assay: Antiproliferative activity against human HCT116 cells incubated for 3 days by MTT assay; assay type: functional, cell-based; details: HCT-116, 72 h
[49] = tested on: A549; assay: Antiproliferative activity against human A549 cells incubated for 3 days by MTT assay; assay type: functional, cell-based; details: A549, 72 h

Structure (SMILES): COc1cc([C@@H]2c3cc4c(cc3[C@@H](n3ccnc3)[C@H]3COC(=O)[C@H]23)OCO4)cc(OC)c1OC
- Ratio IC50 [1]: 5.8
- Ratio IC50 [2]: 5.8
- Ratio IC50 [3]: 5.8
- Ratio IC50 [4]: 5.8
- Ratio IC50 [5]: 5.8
- Ratio IC50 [6]: 5.8
- Ratio IC50 [7]: 5.8
- Ratio IC50 [8]: 5.8
- Ratio IC50 [9]: 5.8

Structure (SMILES): COc1cc([C@@H]2c3cc4c(cc3[C@@H](OC(=O)CCSC(=S)N/N=C/c3ccccn3)[C@H]3COC(=O)[C@H]23)OCO4)cc(OC)c1O
- IC50 [10]: 3.89 µM
- IC50 [11]: 11 µM
- Activity [12]: 93.8%

Structure (SMILES): COc1cc([C@@H]2c3cc4c(cc3[C@@H](O[C@@H]3O[C@@H]5CO[C@@H](C)O[C@H]5[C@H](O)[C@H]3O)[C@H]3COC(=O)[C@H]23)OCO4)cc(OC)c1O [ETOPOSIDE]
- IC50 [13]: > 0.91 µM
- IC50 [14]: > 0.91 µM
- IC50 [15]: > 0.91 µM
- IC50 [16]: > 0.91 µM
- IC50 [17]: 3.39 µM
- Activity [18]: 12.8%
- IC50 [19]: 8.12 µM
- IC50 [20]: 0.183 µM
- IC50 [21]: 1.06 µM
- IC50 [22]: 0.31 µM
- IC50 [10]: 0.31 µM
- IC50 [23]: 14.8 µM
- IC50 [24]: 1.06 µM
- IC50 [25]: 1.06 µM
- IC50 [26]: 1.06 µM
- IC50 [27]: 0.764 µM
- IC50 [28]: 0.31 µM
- IC50 [29]: 0.31 µM
- IC50 [30]: 0.31 µM
- IC50 [31]: 1.98 µM
- IC50 [32]: 22.8 µM
- IC50 [33]: 1.98 µM
- GI50 [34]: 1.08 µM
- GI50 [35]: 36.6 µM
- IC50 [36]: 1.71 µM
- IC50 [37]: 1.71 µM
- IC50 [38]: 1.71 µM
- IC50 [39]: 1.71 µM
- IC50 [40]: 1.71 µM
- IC50 [41]: 0.413 µM
- IC50 [42]: 2.88 µM
- IC50 [43]: 1.74 µM
- IC50 [44]: 2.27 µM
- C0 [45]: 16.8 µM
- AUC [46]: 3180 ng·h/mL
- AUC [47]: 933 ng·h/mL
- IC50 [48]: 4.9 µM
- IC50 [49]: 4.9 µM

Source: ChEMBL document CHEMBL4818987, “Recent advances of podophyllotoxin/epipodophyllotoxin hybrids in anticancer activity, mode of action, and structure-activity relationship: An update (2010-2020)” (Eur J Med Chem, 2020)
